Laboratory results: a melting point compilation (Tetko et al.; mined from patent text by program, amines drawn as free bases though some values may be those of a salt)
Residues, ends and D or L forms follow the SMILES beside them.

Compound `O=C(Nc1nc(Cc2ccccc2)c(C(=O)c2sc(NC(=O)Oc3ccccc3)nc2Cc2ccccc2)s1)Oc1ccccc1` has a melting point greater than 285 °C.
`O=C(Nc1ccc(-c2ccc3c(NC(=O)c4ccccc4)n[nH]c3c2F)cc1)Nc1cc(C(F)(F)F)ccc1F` showed a melting point of 206 to 207 °C.
`CC(C)(COc1ccc2ncnn2n1)CS(N)(=O)=O` showed a melting point of 181 to 184 °C.
Work on `CCCCCC1CCC(C2CCC(CC(O)CC)CC2)CC1` (stereo not drawn) yielded a melting point of 131 °C.
In the case of `Fc1ccc2nc(-c3ccccc3)cc(Cl)c2c1`, the melting point was 96 to 99 °C.
In the case of `Cc1cncn1-c1cc(N)cc(C(F)(F)F)c1`, the melting point was 131 to 133 °C.
In the case of `O=C(NCc1cccs1)c1ccc(CN2C(=O)C3(COc4cc5c(cc43)CCO5)c3ccccc32)cc1` (stereo not drawn), the melting point was 167 to 168 °C.
In the case of `COc1nc(-n2ncc(C#N)c2N)c(Cl)cc1C(F)(F)F`, the melting point was 135 to 139 °C.
Compound `CCOc1ccc(NN=C2CCC(C)n3c2ncc(C(=O)O)c3=O)cc1` (stereo not drawn) has a melting point of 218 to 219 °C.
For `O=C(O)[C@@H]1CCC(=O)N1Cc1ccccc1`, the melting point was 91 to 93 °C.
In the case of `O=C(O)CCc1cc(OCCCc2cn(-c3ccc(C(F)(F)F)cn3)nc2OCc2ccccc2)nn1-c1ccccc1`, the melting point was 159 to 161 °C.
`CN1CCN(c2ccc(Nc3ncc4c(n3)SC(=Cc3ccc(OCc5ccccc5)cc3)C(=O)N4)cc2)CC1` showed a melting point of 238 to 240 °C.
In the case of `CC(C)(OCc1nn(Cc2ccccc2)c2ccccc12)C(=O)NNC(N)=O`, the melting point was 174 to 175 °C.
`CN(C)CC1Cc2ccccc2N(S(C)(=O)=O)C1` (stereo not drawn) gave a melting point of 69 to 70 °C.
In the case of `CC1(C(=O)NCCc2cccs2)CC1`, the melting point was 86 to 88 °C.
With `CC(C(=O)O)c1cccc(N)c1` (stereo not drawn) the melting point was 98 to 100 °C.
Compound `Cc1ncncc1C(=O)Nc1cc(F)c(-n2nc(C(F)(F)F)cc2C2CC2)c(F)c1` has a melting point of 147 to 150 °C.
Compound `c1ccc(C2(c3ccccc3)CCNCCO2)cc1` has a melting point of 72 to 75 °C.
`NC(=O)CNC(=O)[C@@H]1CCCN1` (H-Pro-Gly-NH2) showed a melting point of 124 to 127 °C.
In the case of `CC1(C)CC(=O)Nc2cc3nc(-c4ccc(C#N)cc4)[nH]c3cc21`, the melting point was 228 to 233 °C.
`CN(C)S(=O)(=O)c1c(C(F)(F)F)nn(-c2c(Cl)cc(C(F)(F)F)cc2Cl)c1N` gave a melting point of 178 to 179 °C.
Work on `CCCOc1ccccc1-c1nc2n(C3CCCC3)[nH]c(C)c-2c(=O)n1` yielded a melting point of 130 to 132 °C.
`CC(C)OCCn1c(C2CCN(CCc3ccc(C(C)(C)C)cc3)CC2)nc2ccccc21` showed a melting point of 115 to 117 °C.
For `N#Cc1c(N2CCN(C(=O)c3ccco3)CC2)c2cc(F)cnc2n(Cc2cccc(F)c2)c1=O`, the melting point was 211 °C.
For `Cc1cc(Cl)n2nc(SCc3ccccc3)nc2c1`, the melting point was 108 to 110 °C.
`CC(C)C1(C)C(=O)NC2c3ccccc3C(=O)N21` (stereo not drawn) gave a melting point of 178 to 200 °C.
Work on `CC(C)(C)COc1ccc(NC(=O)c2cnn(-c3ccc(F)cc3)c2Cl)cc1C#N` yielded a melting point of 149 to 150 °C.
Work on `COC(=O)c1ccc(OC(=C(Oc2ccc(C(=O)OC)cc2)C(F)(F)F)C(F)(F)F)cc1` yielded a melting point of 123 °C.
Compound `CCC(C)(C)c1cc(-c2ccc(CC3SC(N4CCOCC4)=NC3=O)s2)ccc1O` (stereo not drawn) has a melting point of 200 to 202 °C.
With `CS(=O)(=O)Nc1cccc(S(F)(F)(F)(F)F)c1` the melting point was 80 to 82 °C.
For `c1ccc(Nc2nc(N3CCN(c4ccccc4)CC3)nc3c2SCC3)cc1`, the melting point was 174 to 175 °C.
Compound `CCn1c(=O)c2[nH]c(/C=C/c3ccc(F)c(Br)c3)nc2n(CC)c1=O` has a melting point greater than 300 °C.
Compound `CCCn1c(=O)c2c(nc(/C=C/c3ccc(OC(=O)c4ccccc4)c(OC(=O)c4ccccc4)c3)n2C)n(CCC)c1=O` has a melting point of 231 °C.
Work on `O=C1CC(Cc2ccc(Cl)cc2)CN1` (stereo not drawn) yielded a melting point of 95 to 98 °C.
With `COC(=O)C(Oc1nc(OC)cc(OC)n1)C(C)(OCc1ccccc1)c1ccccc1` (stereo not drawn) the melting point was 115 to 117 °C.
`CC(C)C[C@H](NC(=O)[C@H](Cc1ccccc1)NC(=O)OCc1ccccc1)C(=O)N[C@@H](C(C)C)[C@@H](O)c1c(-c2ccccc2)c1=O` gave a melting point of 128 to 130 °C.
For `NC(=O)N1C(=O)C(C(=O)c2cc(Cl)cs2)c2cc(Cl)ccc21` (stereo not drawn), the melting point was 212 to 214 °C.
Compound `COc1cc(OC)nc(NC(=O)NS(=O)(=O)c2cccc3c2S(=O)(=O)N(C)C3)n1` has a melting point of 229 to 231 °C.
For `COCc1cnc2c(NC(=O)c3c(Cl)cccc3Cl)cc(C)cc2c1-n1ccnc1`, the melting point was 99 to 101 °C.
Compound `O=C1[C@H]2CCC[C@H]2N(C(=O)CCCCCBr)c2ccccc2N1Cc1ccccc1` (relative stereo) has a melting point of 111 to 112 °C.
In the case of `CC(C)=CCOc1ccc2c(=O)c(C)c(-c3ccccc3)oc2c1C(=O)C=Cc1ccccc1`, the melting point was 83 to 84 °C.
For `N#Cc1cnc(Nc2ccc(CCn3ccnc3)cc2)nc1-c1ccccc1`, the melting point was 210 to 211 °C.
With `CSc1ncc(C)c(=O)[nH]1` the melting point was 238 to 239 °C.
`CSc1ncc2cc(-c3c(Cl)cccc3Cl)c(N)nc2n1` showed a melting point of 250 to 253 °C.
Work on `CCn1c(C)c(C(=O)c2ccc(N)cc2C(=O)O)c2ccccc21` yielded a melting point of 187 to 189 °C.
Compound `O=C(NCc1ccccc1)c1cc2c(-c3ccccc3)n[nH]c2s1` has a melting point of 98 to 101 °C.
With `Clc1cccc(-c2nc(-c3ccccn3)no2)c1` the melting point was 136 to 140 °C.
For `Cc1cc(Oc2c(F)cc(C(F)(F)F)cc2Cl)n[nH]1`, the melting point was 116 to 117 °C.
Work on `ClC(Cl)(Cl)C1NCCO1` (stereo not drawn) yielded a melting point of 73 °C.
With `COc1ccc(S(=O)(=O)CC(CS(=O)(=O)c2ccc(OC)cc2)C(=O)NO)cc1` the melting point was 174 °C.
Compound `CCOC(=O)Cc1ccc(Cc2n[nH]c3c2c(=O)n(-c2ccccc2)c2ncccc32)cc1` has a melting point of 263 to 264 °C.
With `CCOc1cc(-c2cc(C(F)(F)F)n3ncc(C(=O)Nc4cc(S(=O)(=O)NCCO)sc4Cl)c3n2)ccc1C(F)(F)F` the melting point was 250 °C.
In the case of `COc1ccc(-c2nc(CNC(=O)CCC(=O)O)sc2-c2ccc(OC)cc2)cc1`, the melting point was 110 to 116 °C.
In the case of `OCCNc1nc(NCc2ccccc2)c2ncc(Nc3ncccn3)cc2n1`, the melting point was 141 to 142 °C.
For `Cc1cccc(-c2oc3c(C(=O)NCCCN4CCCCC4)cccc3c(=O)c2C)c1`, the melting point was 112 to 114 °C.
With `CC[C@H](C)[C@H](Nc1nc2ccccc2c(=O)o1)C(=O)OC` the melting point was 86 to 87 °C.
`CCOc1cc2cc3c(Nc4cc(OC)c(Cl)cc4C)c(C#N)cnc3cc2cc1OCCN1CCOCC1` showed a melting point of 201 to 203 °C.
`Nc1ccn(C2CC(N)C(CO)O2)c(=O)n1` (stereo not drawn) gave a melting point of 207 °C.
For `CCSc1nc2cccc(C(=O)OC)c2n1Cc1ccc(-c2ccccc2-c2nc(=O)o[nH]2)cc1`, the melting point was 210 to 211 °C.
In the case of `CC(C)(C)c1ccc(C(C)(C)C(=O)Oc2ccc(SCCCC(=O)O)cc2)cc1`, the melting point was 86 to 87 °C.
In the case of `COc1ccccc1CC(O)(Cc1cccs1)C(C)(C)C` (stereo not drawn), the melting point was 74 to 75 °C.
With `Cn1cccc1C(=O)NCc1cccc2c1C(=O)N(C1CCC(=O)NC1=O)C2=O` (stereo not drawn) the melting point was greater than 260 °C.
Compound `Nc1cccc(S(=O)(=O)NC(=O)c2ccccc2)c1` has a melting point of 160 to 162 °C.
Compound `COc1ccc(NC(=O)c2ccc(OC)c(C34CC5CC(CC(C5)C3)C4)c2)c(N)c1` has a melting point of 211 to 213 °C.
Compound `COc1nc2cc(F)c(Cl)c(N)c2nc1OC` has a melting point of 199 to 200 °C.
In the case of `Nc1ccc(-c2ccc(N)c([N+](=O)[O-])c2)cc1[N+](=O)[O-]`, the melting point was 275 °C.
With `CCNc1nc(Cl)cc(NC2CC2)n1` the melting point was 86 to 88 °C.
Work on `O=C(O)CCc1c(-c2ccccc2)noc1O` yielded a melting point of 183 to 184 °C.
Compound `CCN1C(=O)C(C)(C)C(=O)N(C)c2cc(CN(CCn3ccc4ccsc4c3=O)Cc3cnccc3C)ccc21` has a melting point of 138 to 142 °C.
Compound `CCn1c(=O)c(=O)[nH]c2cccc(C)c21` has a melting point greater than 300 °C.
`CC(C)(C)c1ccc(S(=O)(=O)Nc2cc(OCCO)ncn2)cc1` showed a melting point of 169 to 170 °C.
Work on `CCOC(=O)c1ccc(CCN2CCN(S(=O)(=O)c3ccccc3)CC2)cc1` yielded a melting point of 156 to 157 °C.
`Cc1c(NC(=O)c2ccc(-c3ccc4c(c3)CCO4)cc2F)ccc2cc(CN3CCCCC3)cnc12` showed a melting point of 202 to 203 °C.
Work on `CCOC(=O)C1Cc2c([nH]c3ccccc23)CN1` (stereo not drawn) yielded a melting point of 126 to 128 °C.
Compound `C[Si](C)(C)CCC1=C(OC(=O)c2ccccc2)C(=O)c2ccccc2C1=O` has a melting point of 92 to 95 °C.
In the case of `CNc1nc(C)c(-c2nc3ccccc3c(=O)n2-c2ccccc2Cl)s1`, the melting point was 214 to 215 °C.
`NC(=O)[C@@H](N)CN(c1ccccc1)c1ncccn1` gave a melting point of 139 °C.
Compound `COC(=O)C=CC=CCS(=O)c1ccccc1` (stereo not drawn) has a melting point of 82 to 84 °C.
For `CC1=NN(C)C(=O)C1(Br)C(=O)c1ccc(Cl)cc1Cl` (stereo not drawn), the melting point was 89 to 90 °C.
With `COc1ccc2c(C)c(-c3c(OC)cccc3OC(C)=O)c(=O)oc2c1` the melting point was 125 to 126 °C.
`Cc1cc(O)ccc1-c1noc2cc(O)ccc12` showed a melting point of 229 to 231 °C.
In the case of `CSCCCNC(=O)N(O)C[C@@H]1C[C@H]1c1ccccc1` (relative stereo), the melting point was 103 to 104 °C.
With `CON=C(C(=O)O)c1csnn1` the melting point was 110 to 113 °C.
For `NCc1cccc(Cn2ccc(OCc3ccc(F)cc3F)c(Br)c2=O)c1F`, the melting point was 160 to 163 °C.
`CC(O)c1cc2c(cn1)CCCC2` (stereo not drawn) showed a melting point of 44 to 45 °C.
With `CC(=O)OCC1OC(n2cc(C#N)c3c(Cl)nc(Cl)nc32)C(OC(C)=O)C1OC(C)=O` (stereo not drawn) the melting point was 70 to 75 °C.
Compound `CC(=O)NC[C@H]1CN(c2ccc(N3CCC(O)(C#N)CC3)c(F)c2)C(=O)O1` has a melting point of 99 to 100 °C.
With `CCC(CC)(NC(=O)CCn1cnc(CC#N)c1)c1ccccc1` the melting point was 121 to 122 °C.
`COc1cc(Nc2ncnc3cc4cc(OCc5ccccc5)c(OC)cc4cc23)c(Cl)cc1Cl` gave a melting point of 275 to 280 °C.
For `CCS(=O)c1nc(N2CCNCC2)c2sc3nc(-c4ccccc4)cc(C)c3c2n1` (stereo not drawn), the melting point was 165 to 170 °C.
Compound `O=c1c2c(oc3cc(OCCN4CCOCC4)ccc13)C(=Cc1ccccc1)CC2` has a melting point of 167 to 169 °C.
In the case of `CC1Sc2c(C(=O)O)c(=O)c3cc(F)c(N4CCNC(=O)C4)cc3n21` (stereo not drawn), the melting point was 198 to 200 °C.
With `CC1C=CC(Oc2ccc(C(=O)O)o2)=C2N=C3CCCCC3=C21` (stereo not drawn) the melting point was 150 to 152 °C.
`CC(O)(c1ccc(Cl)cc1)C1CCNCC1` (stereo not drawn) showed a melting point of 178 to 180 °C.
`CC(C)C(C#N)Nc1ccc(C(F)(F)F)cc1` (stereo not drawn) gave a melting point of 64.5 to 67 °C.
Work on `CCOC(=O)c1cn(-c2ccccc2)c2c(F)c(F)c(F)cc2c1=O` yielded a melting point of 190 to 192 °C.
Work on `CC(=O)NN=Cc1ccc(N2CCN(C)CC2)nc1F` yielded a melting point of 210 to 212 °C.
Compound `O=C(O)c1cn(-c2cccc(Br)c2)cn1` has a melting point of 205 to 207 °C.
